From ChEMBL document CHEMBL1146911, “Synthesis and SAR of conformationally restricted inhibitors of soluble epoxide hydrolase” (Bioorg Med Chem Lett, 2006)

Tests used:
[1] = AUC in dog at 0.3 mg/kg, po; type: ADME, organism-based, Canis lupus familiaris; design: dose 0.3 mg/kg, route oral; conditions: plasma
[2] = biological target: T1, Bifunctional epoxide hydrolase 2 (Homo sapiens, UniProt P34913)
T1 sequence (P34913 whole entry): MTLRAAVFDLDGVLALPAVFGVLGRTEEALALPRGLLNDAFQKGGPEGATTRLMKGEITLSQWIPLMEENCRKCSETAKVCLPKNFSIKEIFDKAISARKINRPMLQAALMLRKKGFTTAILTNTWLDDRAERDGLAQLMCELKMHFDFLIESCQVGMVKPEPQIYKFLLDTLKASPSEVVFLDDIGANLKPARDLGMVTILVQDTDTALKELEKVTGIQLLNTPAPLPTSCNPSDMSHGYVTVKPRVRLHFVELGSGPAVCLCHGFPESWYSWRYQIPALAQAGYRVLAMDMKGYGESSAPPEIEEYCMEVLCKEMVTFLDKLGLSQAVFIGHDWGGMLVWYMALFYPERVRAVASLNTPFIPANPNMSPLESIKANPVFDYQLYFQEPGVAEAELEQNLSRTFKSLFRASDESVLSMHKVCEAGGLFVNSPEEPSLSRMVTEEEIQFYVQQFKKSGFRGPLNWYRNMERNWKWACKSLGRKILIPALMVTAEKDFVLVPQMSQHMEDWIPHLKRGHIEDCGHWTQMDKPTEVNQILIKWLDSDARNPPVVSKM

SMILES	AUC [1] [µM·h]	IC50 [2] [nM]
CC(=O)N1CCC(CNC(=O)NC23CC4CC(CC(C4)C2)C3)CC1	0.0917	–
O=C(O)CCCCCCCCCCCNC(=O)NC12CC3CC(CC(C3)C1)C2	0.0517	–
CC(=O)N1CCC(NC(=O)NC23CC4CC(CC(C4)C2)C3)CC1 [AR9281]	0.617	–
CCC(=O)N1CCC(NC(=O)NC23CC4CC(CC(C4)C2)C3)CC1	0.108	–
O=C(NCC1CCN(C(=O)c2cccc(C(=O)O)c2)CC1)NC12CC3CC(CC(C3)C1)C2	–	43
O=C(NC1CCN(C(=O)c2ccccn2)CC1)NC12CC3CC(CC(C3)C1)C2	0.0783	–
O=C(NC1CCN(C(=O)c2ccncc2)CC1)NC12CC3CC(CC(C3)C1)C2	–	2.1
O=C(NC1CCN(C(=O)C(F)(F)F)CC1)NC12CC3CC(CC(C3)C1)C2	0.055	–
O=C(NCC1CCN(C(=O)c2cccnc2)CC1)NC12CC3CC(CC(C3)C1)C2	–	5.4
O=C(NCC1CCN(C(=O)c2ccccc2)CC1)NC12CC3CC(CC(C3)C1)C2	0.0055	–
O=C(NCC1CCN(C(=O)c2ccccc2C(=O)O)CC1)NC12CC3CC(CC(C3)C1)C2	–	400
CCCC(=O)N1CCC(NC(=O)NC23CC4CC(CC(C4)C2)C3)CC1	0.0417	–
O=C(O)CCCC(=O)N1CCC(CNC(=O)NC23CC4CC(CC(C4)C2)C3)CC1	–	41
O=C(NC1CCN(C(=O)c2ccccc2)CC1)NC12CC3CC(CC(C3)C1)C2	0.0102	–
O=C(NC1CCN(C(=O)c2cccnc2)CC1)NC12CC3CC(CC(C3)C1)C2	–	1.7
O=C(NCC1CCN(C(=O)c2ccncc2)CC1)NC12CC3CC(CC(C3)C1)C2	–	7.3
